# Tested on: NCI-H196 complex spheroid growth, percent test/control
# Experiment: Anticancer human tumor NCI-H196 cell line growth inhibition [AhR];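 further: seven days of drug exposure starting three days after plating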;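 on viability, T/C: 100% = DMSO vehicle control wells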
# Conditions: for IC50: curve of first compound; for viability, T/C: stronger effect = lower value
# Outline: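 Agents were dosed in half-log steps down from roughly clinical Cmax, or from 10 microM where Cmax was unknown, alone and with AhR antagonists. Read-out: percent test/control growth of tumor spheroids containing HUVEC and MSC stromal cells.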
# [1] = second compound 0.1 µM, first compound 0.00949 µM
# [2] = second compound 0.1 µM, first compound 0.03 µM
# [3] = second compound 0.1 µM, first compound 0.0949 µM
# [4] = second compound 0.1 µM, first compound 0.3 µM
# [5] = second compound 0.316 µM, first compound 0.00949 µM
# [6] = second compound 0.316 µM, first compound 0.03 µM
# [7] = second compound 0.316 µM, first compound 0.0949 µM
# [8] = second compound 0.316 µM, first compound 0.3 µM
# [9] = second compound 1 µM, first compound 0.00949 µM
# [10] = second compound 1 µM, first compound 0.03 µM
# [11] = second compound 1 µM, first compound 0.0949 µM
# [12] = second compound 1 µM, first compound 0.3 µM
# [13] = second compound 3.16 µM, first compound 0.00949 µM
# [14] = second compound 3.16 µM, first compound 0.03 µM
# [15] = second compound 3.16 µM, first compound 0.0949 µM
# [16] = second compound 3.16 µM, first compound 0.3 µM
# [17] = second compound 10 µM, first compound 0.00949 µM
# [18] = second compound 10 µM, first compound 0.03 µM
# [19] = second compound 10 µM, first compound 0.0949 µM
# [20] = second compound 10 µM, first compound 0.3 µM
compound,measurement,setting,value
CC1COCCN1c1cc(C2(S(C)(=N)=O)CC2)nc(-c2ccnc3[nH]ccc23)n1 (stereo not given) + Cc1cncc(-c2nc(NCCc3c[nH]c4ccccc34)c3ncn(C(C)C)c3n2)c1,IC50,second compound 0.1 µM,> 10000 nM
same,IC50,second compound 0.316 µM,> 10000 nM
same,IC50,second compound 1 µM,> 10000 nM
same,IC50,second compound 3.16 µM,> 10000 nM
same,IC50,second compound 10 µM,> 10000 nM
same,"viability, T/C","second compound 0.1 µM, first compound 0.0316 µM",104%
same,"viability, T/C","second compound 0.1 µM, first compound 0.1 µM",103%
same,"viability, T/C","second compound 0.1 µM, first compound 0.316 µM",91%
same,"viability, T/C","second compound 0.1 µM, first compound 1 µM",90.1%
same,"viability, T/C","second compound 0.1 µM, first compound 3.16 µM",88.9%
same,"viability, T/C","second compound 0.1 µM, first compound 10 µM",74.5%
same,"viability, T/C","second compound 0.316 µM, first compound 0.0316 µM",100%
same,"viability, T/C","second compound 0.316 µM, first compound 0.1 µM",101%
same,"viability, T/C","second compound 0.316 µM, first compound 0.316 µM",101%
same,"viability, T/C","second compound 0.316 µM, first compound 1 µM",90.3%
same,"viability, T/C","second compound 0.316 µM, first compound 3.16 µM",85.3%
same,"viability, T/C","second compound 0.316 µM, first compound 10 µM",64.5%
same,"viability, T/C","second compound 1 µM, first compound 0.0316 µM",98.5%
same,"viability, T/C","second compound 1 µM, first compound 0.1 µM",96%
same,"viability, T/C","second compound 1 µM, first compound 0.316 µM",99.8%
same,"viability, T/C","second compound 1 µM, first compound 1 µM",96.9%
same,"viability, T/C","second compound 1 µM, first compound 3.16 µM",86.9%
same,"viability, T/C","second compound 1 µM, first compound 10 µM",73.1%
same,"viability, T/C","second compound 3.16 µM, first compound 0.0316 µM",108%
same,"viability, T/C","second compound 3.16 µM, first compound 0.1 µM",103%
same,"viability, T/C","second compound 3.16 µM, first compound 0.316 µM",104%
same,"viability, T/C","second compound 3.16 µM, first compound 1 µM",96%
same,"viability, T/C","second compound 3.16 µM, first compound 3.16 µM",98.8%
same,"viability, T/C","second compound 3.16 µM, first compound 10 µM",71.9%
same,"viability, T/C","second compound 10 µM, first compound 0.0316 µM",77.3%
same,"viability, T/C","second compound 10 µM, first compound 0.1 µM",96.6%
same,"viability, T/C","second compound 10 µM, first compound 0.316 µM",87.6%
same,"viability, T/C","second compound 10 µM, first compound 1 µM",83.7%
same,"viability, T/C","second compound 10 µM, first compound 3.16 µM",79.3%
same,"viability, T/C","second compound 10 µM, first compound 10 µM",76.4%
Nc1ncn(C2CC(O)C(CO)S2)c(=O)n1 (stereo not given) + Cc1cncc(-c2nc(NCCc3c[nH]c4ccccc34)c3ncn(C(C)C)c3n2)c1,IC50,second compound 0.1 µM,> 300 nM
same,IC50,second compound 0.316 µM,> 300 nM
same,IC50,second compound 1 µM,> 300 nM
same,IC50,second compound 3.16 µM,> 300 nM
same,IC50,second compound 10 µM,> 300 nM
same,"viability, T/C","second compound 0.1 µM, first compound 0.000949 µM",109%
same,"viability, T/C","second compound 0.1 µM, first compound 0.003 µM",112%
same,"viability, T/C",[1],109%
same,"viability, T/C",[2],111%
same,"viability, T/C",[3],118%
same,"viability, T/C",[4],116%
same,"viability, T/C","second compound 0.316 µM, first compound 0.000949 µM",101%
same,"viability, T/C","second compound 0.316 µM, first compound 0.003 µM",110%
same,"viability, T/C",[5],113%
same,"viability, T/C",[6],112%
same,"viability, T/C",[7],115%
same,"viability, T/C",[8],111%
same,"viability, T/C","second compound 1 µM, first compound 0.000949 µM",107%
same,"viability, T/C","second compound 1 µM, first compound 0.003 µM",110%
same,"viability, T/C",[9],108%
same,"viability, T/C",[10],116%
same,"viability, T/C",[11],121%
same,"viability, T/C",[12],123%
same,"viability, T/C","second compound 3.16 µM, first compound 0.000949 µM",118%
same,"viability, T/C","second compound 3.16 µM, first compound 0.003 µM",125%
same,"viability, T/C",[13],115%
same,"viability, T/C",[14],114%
same,"viability, T/C",[15],116%
same,"viability, T/C",[16],117%
same,"viability, T/C","second compound 10 µM, first compound 0.000949 µM",92.3%
same,"viability, T/C","second compound 10 µM, first compound 0.003 µM",92.9%
same,"viability, T/C",[17],101%
same,"viability, T/C",[18],101%
same,"viability, T/C",[19],93.8%
same,"viability, T/C",[20],106%
O=C(C=Cn1cnc(-c2cc(C(F)(F)F)cc(C(F)(F)F)c2)n1)NNc1cnccn1 + Cc1cncc(-c2nc(NCCc3c[nH]c4ccccc34)c3ncn(C(C)C)c3n2)c1,IC50,second compound 0.1 µM,44.3 nM
same,IC50,second compound 0.316 µM,34 nM
same,IC50,second compound 1 µM,42 nM
same,IC50,second compound 3.16 µM,40.2 nM
same,IC50,second compound 10 µM,38.7 nM
same,"viability, T/C",[1],75.3%
same,"viability, T/C",[2],65%
same,"viability, T/C",[3],20.6%
same,"viability, T/C",[4],8.92%
same,"viability, T/C","second compound 0.1 µM, first compound 0.949 µM",8.7%
same,"viability, T/C","second compound 0.1 µM, first compound 3 µM",5.72%
same,"viability, T/C",[5],73.5%
same,"viability, T/C",[6],52.7%
same,"viability, T/C",[7],25.1%
same,"viability, T/C",[8],9.13%
same,"viability, T/C","second compound 0.316 µM, first compound 0.949 µM",9.31%
same,"viability, T/C","second compound 0.316 µM, first compound 3 µM",8.45%
same,"viability, T/C",[9],71%
same,"viability, T/C",[10],59.2%
same,"viability, T/C",[11],27.9%
same,"viability, T/C",[12],13%
same,"viability, T/C","second compound 1 µM, first compound 0.949 µM",8.4%
same,"viability, T/C","second compound 1 µM, first compound 3 µM",7.77%
same,"viability, T/C",[13],80%
same,"viability, T/C",[14],59.4%
same,"viability, T/C",[15],22.4%
same,"viability, T/C",[16],10.5%
same,"viability, T/C","second compound 3.16 µM, first compound 0.949 µM",8.06%
same,"viability, T/C","second compound 3.16 µM, first compound 3 µM",8.49%
same,"viability, T/C",[17],65.2%
same,"viability, T/C",[18],62.8%
same,"viability, T/C",[19],4.24%
same,"viability, T/C",[20],2.39%
same,"viability, T/C","second compound 10 µM, first compound 0.949 µM",8.19%
same,"viability, T/C","second compound 10 µM, first compound 3 µM",5.29%
